Experimental data from patent publication US20220031680A1, “Donecopride As Neuroprotective Agent In the Treatment of Neurodegenerative Diseases” (priority 2018, published 2022).

Test system: C57Bl6/J mice challenged with an intracerebroventricular injection of Aβ1-42 oligomers (AβO)
Experiment: Morris water maze (learning and long-term memory) in mice icv injected with AβO
Assay type: in vivo, mouse
Experimental: Briefly, 144 C57Bl6/J male mice (3 months of age) were received and housed (4 to 5 per cage) in quarantine during 7 days, or longer. Test items were dosed per os (through oral gavage) once daily at different concentrations from day −1 to day +17.
From days +3 to days +14, learning capacities and long-term memory were investigated in the MWM assay.
The different experimental groups are defined as follow: • GROUP A (vehicle CTRL): po vehicle AND icv injection of vehicle (n=12) • GROUP B (APO CTRL): po vehicle AND icv injection of AβO (n=12) • GROUP C (positive CTRL): po Donepezil subchronic AND icv injection of AβO (n=12) • GROUP D (Donecopride CTRL): po Donecopride (9 mg/kg) AND icv injection of vehicle (n=12) • GROUP E (Flucopride CTRL): po Flucopride (9 mg/kg) AND icv injection of vehicle (n=12) • GROUP F (Donecopride Treated): po Donecopride (1 mg/kg) AND icv injection of AβO (n=12) • GROUP G (Donecopride Treated): po Donecopride (3 mg/kg) AND icv injection of AβO (n=12) • GROUP H (Donecopride Treated): po Donecopride (9 mg/kg) AND icv injection of AβO (n=12) • GROUP I (Fluocopride Treated): po Flucopride (1 mg/kg) AND icv injection of AβO (n=12) • GROUP J (Flucopride Treated): po Flucopride (3 mg/kg) AND icv injection of AβO (n=12) • GROUP K (Flucopride Treated): po Flucopride (9 mg/kg) AND icv injection of AβO (n=12) • GROUP L (positive CTRL): ip Donepezil acute on test days AND icv injection of AβO (n=12)
For per os dosing, Donecopride and Flucopride were formulated by solubilization in 0.9% NaCl. Compound dosing (total volume of 200 μL) started one day before induction of the disease (through icv injection of AβO) and was done for 19 consecutive days.
Single intra-cerebroventricular injection of 144 mice with vehicle or APO (max. 24 mice per day, all mice randomized): under anesthesia (ip injection of a mixture of ketamine/xylasine at a dose of 110 and 15 mg/kg, respectively) AβO (1 μL), or vehicle (1 μL) were injected into the right lateral ventricle. Injections were made using 10 μL Hamilton micro syringes fitted with a 26-gauge needle. The procedure was terminated by a subcutaneous injection of metacam (analgesia) at a dose of 5 mg/kg. Animals were then placed individually in their home-cage and the cage was placed in a heated cabinet until the animal has fully recovered. Animals were carefully monitored to control recovery after anesthesia.
Preparation of APO: Aβ1-42 was obtained from Bachem (ref H1368) (batch number: 1052301). The preparation of stable Aβ1-42 oligomers was performed as described in Garcia et al. (2010) J. Neurosci. 30:7516-7527. The oligomeric preparation (identified as Batch #2016-14) contained a mixture of stable trimers and tetramers of Aβ1-42, as well as monomeric forms of the peptide. All oligomer preparations used were previously characterized in terms of oligomer composition and in vitro neurotoxicity.
6 independent trials involving each 24 mice (i.e. 2 mice from each experimental group) for a total of 144 mice at day +4.
Detailed protocol: Habituation trials (visible platform)—The Morris water maze (MWM) was performed as described in Garcia et al. (2010) J. Neurosci. 30:7516-7527. The experimental apparatus consists of a circular water tank (diameter=100 cm; height=50 cm) containing water at 21° C. to a depth of 25 cm and rendered opaque to block the view past the water surface by adding an aqueous acrylic emulsion. A platform (diameter=10 cm) is used and placed at the midpoint of a quadrant. The pool is located in a test room, homogeneously illuminated at 100 lux. The swimming path of the animals is recorded using a video tracking system. Mice are brought to the experimental room for at least 30 min prior to testing, to enable acclimation to the experimental room conditions. Navigation to a visible platform is carried out before place-navigation, to evaluate visual and motor abilities of all mice. […]

[1] = 3 mg/kg/day po, icv AβO, day 5 of training
[2] = 9 mg/kg/day po, icv vehicle, day 5 of training
[3] = at all doses (1, 3, 9 mg/kg/day po), icv AβO
[4] = ip acute on test day, icv AβO (Group L)
[5] = po sub-chronic, icv AβO (Group C)

| Compound | mean latency to target (MWM probe trial) (1 mg/kg/day po, icv AβO) [s] | mean crossing number (MWM probe trial) (3 mg/kg/day po, icv AβO) | mean escape latency (MWM learning trials) [1] [s] | mean crossing number (MWM probe trial) (9 mg/kg/day po, icv vehicle) | mean latency to target (MWM probe trial) (9 mg/kg/day po, icv vehicle) [s] | mean escape latency (MWM learning trials) [2] [s] | AβO-induced impairment of long-term memory evaluated using the latency to target [3] | AβO-induced impairment of long-term memory evaluated using the number of crossings [3] | time spent in target vs opposite quadrant (MWM probe trial) (icv AβO) | mean crossing number (MWM probe trial) [4] | mean latency to target (MWM probe trial) [4] [s] | mean escape latency (MWM learning trials) (ip acute on test day, icv AβO (Group L), day 5 of training) [s] | mean crossing number (MWM probe trial) [5] | mean latency to target (MWM probe trial) [5] [s] | mean escape latency (MWM learning trials) (po sub-chronic, icv AβO (Group C), after five days of training (day 5)) [s] | mean escape latency (MWM learning trials) (1 mg/kg/day po, icv AβO, day 5 of training) [s] | improvement of learning capacities (MWM learning trials) (9 mg/kg/day po, icv AβO) | mean latency to target (MWM probe trial) (9 mg/kg/day po, icv AβO) [s] | mean escape latency (MWM learning trials) (9 mg/kg/day po, icv vehicle, day 4 of training) [s] |
| --- | --- | --- | --- | --- | --- | --- | --- | --- | --- | --- | --- | --- | --- | --- | --- | --- | --- | --- | --- |
| COc1cc(N)c(Cl)cc1C(=O)CCC1CCN(CC2CCCCC2)CC1 [Donecopride] | 9.3 ± 1.4 | 5.1±0.6 | 12.7 ± 1.5 | 4.6±0.5 | 7.2 ± 1.5 | 13.0 ± 1.7 | inhibition | inhibition | did not improve |  |  |  |  |  |  |  |  |  |  |
| COc1cc2c(cc1OC)C(=O)C(CC1CCN(Cc3ccccc3)CC1)C2 (stereo not drawn) [Donepezil, reference compound] |  |  |  |  |  |  |  |  | failed to improve | 3.8±0.4 | 13.3 ± 2.3 | 13.4 ± 1.5 | 3.7±0.4 | 14.6 ± 2.7 | 14.7 ± 1.9 |  |  |  |  |
| COc1cc(N)c(F)cc1C(=O)CCC1CCN(CC2CCCCC2)CC1 [Flucopride] |  | 4.1±0.6 | 12.5 ± 1.1 | 4.6±0.7 | 12.0 ± 2.1 | 16.3 ± 2.0 |  | inhibition | did not improve |  |  |  |  |  |  | 13.1 ± 1.1 | had no effect | 10.7 ± 1.9 | 14.2 ± 1.9 |
